According to patent US20250235455A1, “AQUEOUS TICAGRELOR SOLUTIONS, METHOD OF MANUFACTURING AND USES” (HYLORIS DEVELOPMENTS SA, priority 2022, published 2025):
Read-outs that look alike come from different tables or passages of the source.

Assays:
[1] = Stability of ticagrelor 6 mg/ml in HPβCD 40% w/w, buffer pH 4.5, 5.5, 6.5, stored at 40° C. and 75% RH (HPLC related substances); assay type: physicochemical
Method: HPβCD was dissolved in a buffer solution of pH 4.5, 5.5 or 6.5 prepared separately in water. […] The ticagrelor in buffer solution was filtered through a 0.22 micron filtered and filled in USP Type I glass vials. The vials were stoppered and stored. All precautions were taken during manufacturing, such as N2 purging and avoiding direct exposure to light. The vials were stored at 40° C. and 75% Relative Humidity (RH).
To determine the stability of the formulations, batches were evaluated using a related substance method on HPLC.
A Gradient HPLC method was used to analyze impurities in formulations using a YMC-Pack Pro C18 column (100×4.6 mm, S-3 μm 12 nm). Good separation was obtained for all the impurities. • Amine impurity: (1S,2S,3R,5S)-3-(7-amino-5-(propylsulfanyl)-3H-[1,2,3]triazolo[4,5-d]pyrimidin-3-yl)-5-(2-hydroxyethoxy)cyclopentane-1,2-diol. This is a process related degradant impurity. • Regiomer impurity: (1S, 2S, 3R, 5S)-3-((3-((1R,2S)-2-(3,4-Difluorophenyl)cyclopropyl)-5-(propylsulfanyl)-3H-[1,2,3]triazolo[4,5-d]pyrimidin-7-yl)amino)-5-(2-hydroxyethoxy)cyclopentane-1,2-diol. This is a process related degradant impurity. • Acetal impurity: 2-[[(3aR,4S,6S,6aS)-6-[7-[1R,2S)-2-(3,4-difluorophenyl)-cyclopropyl]amino]-5-(propylsulfanyl)-3H-[1,2,3]triazolo-[4,5-d]pyrimidin-3-yl]-2,2-dimethyltetrahydro-2H-3aHcyclopenta[d][1,3]dioxol-4-yl]oxy]ethan-1-ol.

[2] = Diluent tests of 5 mg/ml ticagrelor-cyclodextrin solutions; assay type: physicochemical; conditions: for Appearance, undiluted: 5 mg/ml; for Appearance in 5% dextrose / Appearance in NaCl 0.9%: diluted to 0.1 mg/ml
Method: 5 mg/ml ticagrelor-cyclodextrin solutions with varying amounts of HPβCD were diluted with normal saline, 5% dextrose solution or Ringer's lactate solution. The stability was screened.

[3] = for Appearance, undiluted: 5 mg/ml; for Appearance in 5% dextrose / Appearance in NaCl 0.9%: diluted to 0.1 mg/ml
[4] = pH 4.5, T = 2 weeks, 40° C./75% RH
[5] = pH 4.5, T = 4 weeks, 40° C./75% RH
[6] = pH 5.5, T = 2 weeks, 40° C./75% RH
[7] = pH 5.5, T = 4 weeks, 40° C./75% RH
[8] = pH 6.5, T = 2 weeks, 40° C./75% RH
[9] = pH 6.5, T = 4 weeks, 40° C./75% RH

SMILES: CCCSc1nc(N[C@@H]2C[C@H]2c2ccc(F)c(F)c2)c2nnn([C@@H]3C[C@H](OCCO)[C@@H](O)[C@H]3O)c2n1 [Ticagrelor, (1S,2S,3R,5S)-3-{7-[(1R,2S)-2-(3,4-difluorophenyl)cyclopropylamino]5-(propylthio)-3H-(1,2,3)triazolo (4,5-D)pyrimidin-3-yl}-5-(2 hydroxyethoxy)cyclopentane-1,2-diol]
- Regiomer impurity level ([1]; 4 weeks 40° C. and 75% RH, specification limit 0.3%): ~0.3%
- Acetal impurity content ([1]; pH 4.5, T = 0): 0.05%
- Amine impurity content ([1]; pH 4.5, T = 0): 0.05%
- Content of unnamed impurity, relative retention time 1.52 ([1]; pH 4.5, T = 0): 0.03%
- Oxidative impurity 1 content ([1]; pH 4.5, T = 0): 0.00%
- Oxidative impurity 2 content ([1]; pH 4.5, T = 0): 0.00%
- Regiomer impurity content ([1]; pH 4.5, T = 0): 0.00%
- Sum Impurities >0.05 ([1]; pH 4.5, T = 0): 0.22%
- Total Impurities ([1]; pH 4.5, T = 0): 0.36%
- Triol impurity content ([1]; pH 4.5, T = 0): 0.05%
- Acetal impurity content [1, 4]: 0.06%
- Amine impurity content [1, 4]: 0.05%
- Content of unnamed impurity, relative retention time 1.52 [1, 4]: 0.04%
- Oxidative impurity 1 content [1, 4]: 0.00%
- Oxidative impurity 2 content [1, 4]: 0.00%
- Regiomer impurity content [1, 4]: 0.00%
- Sum Impurities >0.05 [1, 4]: 0.23%
- Total Impurities [1, 4]: 0.40%
- Triol impurity content [1, 4]: 0.05%
- Acetal impurity content [1, 5]: 0.05%
- Amine impurity content [1, 5]: 0.05%
- Content of unnamed impurity, relative retention time 1.52 [1, 5]: 0.03%
- Oxidative impurity 1 content [1, 5]: 0.01%
- Oxidative impurity 2 content [1, 5]: 0.02%
- Regiomer impurity content [1, 5]: 0.42%
- Sum Impurities >0.05 [1, 5]: 0.63%
- Total Impurities [1, 5]: 0.80%
- Triol impurity content [1, 5]: 0.05%
- Acetal impurity content ([1]; pH 5.5, T = 0): 0.05%
- Amine impurity content ([1]; pH 5.5, T = 0): 0.04%
- Content of unnamed impurity, relative retention time 1.52 ([1]; pH 5.5, T = 0): 0.02%
- Oxidative impurity 1 content ([1]; pH 5.5, T = 0): 0.00%
- Oxidative impurity 2 content ([1]; pH 5.5, T = 0): 0.00%
- Regiomer impurity content ([1]; pH 5.5, T = 0): 0.00%
- Sum Impurities >0.05 ([1]; pH 5.5, T = 0): 0.16%
- Total Impurities ([1]; pH 5.5, T = 0): 0.33%
- Triol impurity content ([1]; pH 5.5, T = 0): 0.05%
- Acetal impurity content [1, 6]: 0.05%
- Amine impurity content [1, 6]: 0.05%
- Content of unnamed impurity, relative retention time 1.52 [1, 6]: 0.03%
- Oxidative impurity 1 content [1, 6]: 0.00%
- Oxidative impurity 2 content [1, 6]: 0.00%
- Regiomer impurity content [1, 6]: 0.00%
- Sum Impurities >0.05 [1, 6]: 0.21%
- Total Impurities [1, 6]: 0.36%
- Triol impurity content [1, 6]: 0.05%
- Acetal impurity content [1, 7]: 0.05%
- Amine impurity content [1, 7]: 0.04%
- Content of unnamed impurity, relative retention time 1.52 [1, 7]: 0.02%
- Oxidative impurity 1 content [1, 7]: 0.01%
- Oxidative impurity 2 content [1, 7]: 0.02%
- Regiomer impurity content [1, 7]: 0.30%
- Sum Impurities >0.05 [1, 7]: 0.45%
- Total Impurities [1, 7]: 0.65%
- Triol impurity content [1, 7]: 0.05%
- Acetal impurity content ([1]; pH 6.5, T = 0): 0.06%
- Amine impurity content ([1]; pH 6.5, T = 0): 0.05%
- Content of unnamed impurity, relative retention time 1.52 ([1]; pH 6.5, T = 0): 0.03%
- Oxidative impurity 1 content ([1]; pH 6.5, T = 0): 0.00%
- Oxidative impurity 2 content ([1]; pH 6.5, T = 0): 0.00%
- Regiomer impurity content ([1]; pH 6.5, T = 0): 0.00%
- Sum Impurities >0.05 ([1]; pH 6.5, T = 0): 0.22%
- Total Impurities ([1]; pH 6.5, T = 0): 0.36%
- Triol impurity content ([1]; pH 6.5, T = 0): 0.06%
- Acetal impurity content [1, 8]: 0.06%
- Amine impurity content [1, 8]: 0.05%
- Content of unnamed impurity, relative retention time 1.52 [1, 8]: 0.04%
- Oxidative impurity 1 content [1, 8]: 0.00%
- Oxidative impurity 2 content [1, 8]: 0.00%
- Regiomer impurity content [1, 8]: 0.00%
- Sum Impurities >0.05 [1, 8]: 0.23%
- Total Impurities [1, 8]: 0.41%
- Triol impurity content [1, 8]: 0.06%
- Acetal impurity content [1, 9]: 0.06%
- Amine impurity content [1, 9]: 0.05%
- Content of unnamed impurity, relative retention time 1.52 [1, 9]: 0.03%
- Oxidative impurity 1 content [1, 9]: 0.00%
- Oxidative impurity 2 content [1, 9]: 0.04%
- Regiomer impurity content [1, 9]: 0.35%
- Sum Impurities >0.05 [1, 9]: 0.56%
- Total Impurities [1, 9]: 0.72%
- Triol impurity content [1, 9]: 0.05%
- Appearance, undiluted ([2]; HPβCD 22.5% w/w): Turbid; clear after heating to 40 °C
- Appearance, undiluted ([2]; HPβCD 25.0% w/w): Turbid; clear after heating to 40 °C
- Appearance, undiluted ([2]; HPβCD 27.5% w/w): Turbid; clear after heating to 40 °C
- Appearance, undiluted ([2]; HPβCD 30.0% w/w): Clear solution
- Appearance, undiluted ([2]; HPβCD 32.5% w/w): Clear solution
- Appearance in 5% dextrose ([2]; HPβCD 22.5% w/w): Clear solution
- Appearance in NaCl 0.9% ([2]; HPβCD 22.5% w/w): Turbid
- Appearance in 5% dextrose ([2]; HPβCD 25.0% w/w): Clear solution
- Appearance in NaCl 0.9% ([2]; HPβCD 25.0% w/w): Turbid
- Appearance in 5% dextrose ([2]; HPβCD 27.5% w/w): Clear solution
- Appearance in NaCl 0.9% ([2]; HPβCD 27.5% w/w): Turbid
- Appearance in 5% dextrose ([2]; HPβCD 30.0% w/w): Clear solution
- Appearance in NaCl 0.9% ([2]; HPβCD 30.0% w/w): Turbid
- Appearance in 5% dextrose ([2]; HPβCD 32.5% w/w): Clear solution
- Appearance in NaCl 0.9% ([2]; HPβCD 32.5% w/w): Clear solution
- Appearance with diluent ([2]; Normal saline and Ringer's lactate solution as diluent): turbid solutions
- Appearance, undiluted ([3]; HPβCD 22.5% w/w): Turbid; clear after heating to 40 °C
- Appearance, undiluted ([3]; HPβCD 25.0% w/w): Turbid; clear after heating to 40 °C
- Appearance, undiluted ([3]; HPβCD 27.5% w/w): Turbid; clear after heating to 40 °C
- Appearance, undiluted ([3]; HPβCD 30.0% w/w): Clear solution
- Appearance, undiluted ([3]; HPβCD 32.5% w/w): Clear solution
- Ticagrelor concentration possible to dissolve ([3]; HPβCD 20-40% w/w, without the use of heat): 5 to 15 mg/mL
- Appearance in 5% dextrose ([3]; HPβCD 22.5% w/w): Clear solution
- Appearance in NaCl 0.9% ([3]; HPβCD 22.5% w/w): Turbid
- Appearance in 5% dextrose ([3]; HPβCD 25.0% w/w): Clear solution
- Appearance in NaCl 0.9% ([3]; HPβCD 25.0% w/w): Turbid
- Appearance in 5% dextrose ([3]; HPβCD 27.5% w/w): Clear solution
- Appearance in NaCl 0.9% ([3]; HPβCD 27.5% w/w): Turbid
- Appearance in 5% dextrose ([3]; HPβCD 30.0% w/w): Clear solution
- Appearance in NaCl 0.9% ([3]; HPβCD 30.0% w/w): Turbid
- Appearance in 5% dextrose ([3]; HPβCD 32.5% w/w): Clear solution
- Appearance in NaCl 0.9% ([3]; HPβCD 32.5% w/w): Clear solution
- Stability of undiluted concentrate in the refrigerator ([3]; HPβCD concentration as low as 22.5% w/w): remained stable
- HPβCD required for a clear, storage stable ticagrelor solution ([3]; concentration relevant for injection or intravenous administration): At least 15 % w/w
